Measurements: ChEMBL document CHEMBL1201862, “PubChem BioAssay data set” (2004)
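Protocol summary: plate cells (96-well), add compound at 5 concentrations, incubate 48 h, interpolate endpoints linearly. The concentration for 50% growth inhibition is given as GI50.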 The source made the active and inactive calls. No stated cut-off is given here; in the data, active = GI50 up to about 1.1 µM and inactive = higher.

How the values were obtained:
Assay in all cases: inhibition of tumour cell growth, NCI panel, 48 h
EKVX = tested on: EKVX
SK-MEL-5 = tested on: SK-MEL-5
HCT-15 = tested on: HCT-15
UACC-257 = tested on: UACC-257
HOP-18 = tested on: HOP-18
SF-295 = tested on: SF-295
DLD-1 = tested on: DLD-1
KM-20L2 = tested on: KM-20L2
Malme-3M = tested on: Malme-3M
RXF 631 = tested on: RXF 631
SW-620 = tested on: SW-620
CAKI-1 = tested on: CAKI-1
SK-MEL-28 = tested on: SK-MEL-28
A498 = tested on: A498
HCC 2998 = tested on: HCC 2998
ACHN = tested on: ACHN
UACC-62 = tested on: UACC-62
OVCAR-8 = tested on: OVCAR-8
SNB-75 = tested on: SNB-75
HOP-92 = tested on: HOP-92
HOP-62 = tested on: HOP-62
MOLT-4 = tested on: MOLT-4
UO-31 = tested on: UO-31
HL-60 = tested on: HL-60
LOX IMVI = tested on: LOX IMVI
NCI-H522 = tested on: NCI-H522
NCI-H460 = tested on: NCI-H460
U-251 = tested on: U-251
OVCAR-3 = tested on: OVCAR-3
IGROV-1 = tested on: IGROV-1
CCRF-CEM = tested on: CCRF-CEM
SF-539 = tested on: SF-539
SF-268 = tested on: SF-268
SK-MEL-2 = tested on: SK-MEL-2
SN12C = tested on: SN12C
DMS-114 = tested on: DMS-114
K562 = tested on: K562
COLO 205 = tested on: COLO 205
786-0 = tested on: 786-0
HT-29 = tested on: HT-29
NCI-H226 = tested on: NCI-H226
NCI-H23 = tested on: NCI-H23
RXF 393 = tested on: RXF 393
OVCAR-5 = tested on: OVCAR-5
KM12 = tested on: KM12
A549 = tested on: A549
SNB-78 = tested on: SNB-78
DMS-273 = tested on: DMS-273
RPMI-8226 = tested on: RPMI-8226
SK-OV-3 = tested on: SK-OV-3
TK-10 = tested on: TK-10
LXFL 529 = tested on: LXFL 529
M14 = tested on: M14
Hs-578T = tested on: Hs-578T
PC-3 = tested on: PC-3
MDA-MB-435 = tested on: MDA-MB-435
M19-MEL = tested on: M19-MEL
XF498 = tested on: XF498
SR = tested on: SR
OVCAR-4 = tested on: OVCAR-4
BT-549 = tested on: BT-549
T47D = tested on: T47D
MDA-MB-231 = tested on: MDA-MB-231
MCF7 = tested on: MCF7
SNB-19 = tested on: SNB-19
DU-145 = tested on: DU-145
HCT-116 = tested on: HCT-116

COc1cc(/C=C/C(=O)c2sc(NNC(C)=O)nc2C)ccc1O
GI50 (EKVX): > 100 µM (inactive)
GI50 (SK-MEL-5): > 100 µM (inactive)
GI50 (HCT-15): > 100 µM
GI50 (UACC-257): > 100 µM (inactive)
GI50 (HOP-18): > 100 µM (inactive)
GI50 (SF-295): > 100 µM (inactive)
GI50 (DLD-1): > 100 µM (inactive)
GI50 (KM-20L2): > 100 µM (inactive)
GI50 (Malme-3M): > 100 µM (inactive)
GI50 (RXF 631): > 100 µM (inactive)
GI50 (SW-620): > 100 µM (inactive)
GI50 (CAKI-1): > 100 µM (inactive)
GI50 (SK-MEL-28): > 100 µM (inactive)
GI50 (A498): 84.3 µM (inactive)
GI50 (HCC 2998): > 100 µM (inactive)
GI50 (ACHN): > 100 µM (inactive)
GI50 (UACC-62): > 100 µM (inactive)
GI50 (OVCAR-8): > 100 µM (inactive)
GI50 (SNB-75): > 100 µM (inactive)
GI50 (HOP-92): > 100 µM (inactive)
GI50 (HOP-62): > 100 µM (inactive)
GI50 (MOLT-4): > 100 µM (inactive)
GI50 (UO-31): > 100 µM (inactive)
GI50 (HL-60): > 100 µM (inactive)
GI50 (LOX IMVI): > 100 µM (inactive)
GI50 (NCI-H522): > 100 µM (inactive)
GI50 (NCI-H460): > 100 µM (inactive)
GI50 (U-251): > 100 µM (inactive)
GI50 (OVCAR-3): > 100 µM (inactive)
GI50 (IGROV-1): > 100 µM (inactive)
GI50 (CCRF-CEM): > 100 µM (inactive)
GI50 (SF-539): > 100 µM (inactive)
GI50 (SF-268): > 100 µM (inactive)
GI50 (SK-MEL-2): > 100 µM (inactive)
GI50 (SN12C): > 100 µM (inactive)
GI50 (DMS-114): > 100 µM (inactive)
GI50 (K562): > 100 µM (inactive)
GI50 (COLO 205): > 100 µM (inactive)
GI50 (786-0): > 100 µM (inactive)
GI50 (HT-29): > 100 µM (inactive)
GI50 (NCI-H226): > 100 µM (inactive)
GI50 (NCI-H23): > 100 µM (inactive)
GI50 (RXF 393): > 100 µM (inactive)
GI50 (OVCAR-5): > 100 µM (inactive)
GI50 (KM12): > 100 µM (inactive)
GI50 (A549): > 100 µM (inactive)
GI50 (SNB-78): > 100 µM (inactive)
GI50 (DMS-273): > 100 µM (inactive)
GI50 (RPMI-8226): > 100 µM (inactive)
GI50 (SK-OV-3): > 100 µM (inactive)
GI50 (TK-10): > 100 µM (inactive)

Cc1ccc(NC(=O)NC(=O)c2ccc([N+](=O)[O-])cc2[N+](=O)[O-])cc1Oc1ncc(Cl)cn1
GI50 (EKVX): > 10 µM (inactive)
GI50 (SK-MEL-5): 0.195 µM (active)
GI50 (LXFL 529): 0.36 µM (active)
GI50 (HCT-15): 0.44 µM
GI50 (UACC-257): 0.689 µM (active)
GI50 (M14): 0.38 µM (active)
GI50 (HOP-18): 10.3 µM (inactive)
GI50 (SF-295): 0.406 µM (active)
GI50 (DLD-1): 0.421 µM (active)
GI50 (KM-20L2): 0.234 µM (active)
GI50 (Malme-3M): 0.0925 µM (active)
GI50 (SW-620): 0.332 µM (active)
GI50 (Hs-578T): 0.05 µM (active)
GI50 (CAKI-1): 0.479 µM (active)
GI50 (PC-3): 0.117 µM (active)
GI50 (MDA-MB-435): 0.063 µM (active)
GI50 (M19-MEL): 0.741 µM (active)
GI50 (SK-MEL-28): 2.9 µM (inactive)
GI50 (A498): 0.5 µM (active)
GI50 (HCC 2998): 0.271 µM (active)
GI50 (ACHN): 1.33 µM (inactive)
GI50 (UACC-62): 0.229 µM (active)
GI50 (OVCAR-8): 0.468 µM (active)
GI50 (SNB-75): 0.0752 µM (active)
GI50 (XF498): 0.843 µM (active)
GI50 (SR): 0.409 µM (active)
GI50 (HOP-62): 0.277 µM (active)
GI50 (MOLT-4): 0.362 µM (active)
GI50 (OVCAR-4): 11.4 µM (inactive)
GI50 (UO-31): 0.735 µM (active)
GI50 (HL-60): 0.218 µM (active)
GI50 (LOX IMVI): 0.637 µM (active)
GI50 (NCI-H522): 0.195 µM (active)
GI50 (NCI-H460): 0.338 µM (active)
GI50 (U-251): 0.208 µM (active)
GI50 (OVCAR-3): 0.355 µM (active)
GI50 (BT-549): 17.9 µM (inactive)
GI50 (IGROV-1): 1.13 µM (inactive)
GI50 (T47D): 12.7 µM (inactive)
GI50 (CCRF-CEM): 0.292 µM (active)
GI50 (SF-539): 0.287 µM (active)
GI50 (SF-268): 0.713 µM (active)
GI50 (SN12C): 0.578 µM (active)
GI50 (MDA-MB-231): 0.614 µM (active)
GI50 (DMS-114): 0.484 µM (active)
GI50 (K562): 0.275 µM (active)
GI50 (COLO 205): 0.415 µM (active)
GI50 (786-0): 0.466 µM (active)
GI50 (HT-29): 0.3 µM (active)
GI50 (NCI-H226): 0.449 µM (active)
GI50 (MCF7): 0.164 µM (active)
GI50 (NCI-H23): 0.564 µM (active)
GI50 (RXF 393): 0.175 µM (active)
GI50 (OVCAR-5): 0.828 µM (active)
GI50 (SNB-19): 0.48 µM (active)
GI50 (KM12): 0.252 µM (active)
GI50 (DU-145): 0.731 µM (active)
GI50 (A549): 0.542 µM (active)
GI50 (SNB-78): 0.346 µM (active)
GI50 (DMS-273): 0.318 µM (active)
GI50 (RPMI-8226): 0.292 µM (active)
GI50 (HCT-116): 0.333 µM (active)
GI50 (SK-OV-3): 0.908 µM (active)
GI50 (TK-10): 14.4 µM (inactive)

O=P(Oc1ccc2ccccc2c1)(N1CC1)N1CC1
GI50 (EKVX): 13.6 µM (inactive)
GI50 (LXFL 529): > 100 µM (inactive)
GI50 (HCT-15): > 100 µM
GI50 (UACC-257): 38.2 µM (inactive)
GI50 (M14): 11.4 µM (inactive)
GI50 (HOP-18): 22.6 µM (inactive)
GI50 (SF-295): 10.9 µM (inactive)
GI50 (DLD-1): 92.3 µM (inactive)
GI50 (KM-20L2): > 100 µM (inactive)
GI50 (Malme-3M): 10.7 µM (inactive)
GI50 (SW-620): > 100 µM (inactive)
GI50 (M19-MEL): 13.5 µM (inactive)
GI50 (SK-MEL-28): 28.4 µM (inactive)
GI50 (A498): 20.3 µM (inactive)
GI50 (HCC 2998): 88.1 µM (inactive)
GI50 (ACHN): 2.61 µM (inactive)
GI50 (UACC-62): 2.88 µM (inactive)
GI50 (OVCAR-8): 59.2 µM (inactive)
GI50 (XF498): 17.7 µM (inactive)
GI50 (SR): 3.13 µM (inactive)
GI50 (HOP-92): 24.5 µM (inactive)
GI50 (MOLT-4): 53.2 µM (inactive)
GI50 (OVCAR-4): 89.1 µM (inactive)
GI50 (UO-31): 10.7 µM (inactive)
GI50 (HL-60): 26.4 µM (inactive)
GI50 (LOX IMVI): 28.8 µM (inactive)
GI50 (NCI-H522): 11 µM (inactive)
GI50 (NCI-H460): 8.99 µM (inactive)
GI50 (U-251): 27.6 µM (inactive)
GI50 (OVCAR-3): 65.8 µM (inactive)
GI50 (IGROV-1): 83.4 µM (inactive)
GI50 (CCRF-CEM): 44.9 µM (inactive)
GI50 (SF-539): 17.6 µM (inactive)
GI50 (SF-268): 2.15 µM (inactive)
GI50 (SK-MEL-2): 68.1 µM (inactive)
GI50 (SN12C): 23.5 µM (inactive)
GI50 (DMS-114): 38.4 µM (inactive)
GI50 (K562): 37.2 µM (inactive)
GI50 (COLO 205): 55.6 µM (inactive)
GI50 (786-0): 4.84 µM (inactive)
GI50 (HT-29): > 100 µM (inactive)
GI50 (NCI-H226): 16.2 µM (inactive)
GI50 (NCI-H23): 4.43 µM (inactive)
GI50 (RXF 393): 14.3 µM (inactive)
GI50 (OVCAR-5): 34 µM (inactive)
GI50 (SNB-19): 26.9 µM (inactive)
GI50 (KM12): > 100 µM (inactive)
GI50 (A549): 5.62 µM (inactive)
GI50 (SNB-78): > 100 µM (inactive)
GI50 (DMS-273): 6.21 µM (inactive)
GI50 (RPMI-8226): > 100 µM (inactive)
GI50 (HCT-116): 53.3 µM (inactive)
GI50 (SK-OV-3): 46.3 µM (inactive)
GI50 (TK-10): 67.9 µM (inactive)
